Tests used:
[1] = 101.33 kPa, Liquid, Vibrating tube method
[2] = relative permittivity at various frequencies (dimensionless); conditions: 100 kPa, Liquid, Frequency=1 MHz, Parallel plate capacitor
[3] = relative permittivity at various frequencies (dimensionless); xn = mol fraction of the nth substance listed; conditions: 100 kPa, Liquid, Frequency=1 MHz, Parallel plate capacitor

Nc1ccccc1 [aniline]
Conditions | mass density, 293.15 K [kg/m3] | mass density, 298.1 K [kg/m3] | mass density, 303.15 K [kg/m3] | relative permittivity, 293.15 K | relative permittivity, 298.15 K | relative permittivity, 303.15 K
[1] | 1021.79 | 1017.52 | 1013.19 | – | – | –
[2] | – | – | – | 7.117 | 6.984 | 6.856

Nc1ccccc1 [aniline] + CN(C)C=O
relative permittivity, [3]
Conditions | 293.15 K | 298.15 K | 303.15 K
x2 = 0 | 7.117 | 6.984 | 6.856
x2 = 0.0533 | 8.91 | 8.729 | 8.557
x2 = 0.1046 | 10.653 | 10.426 | 10.2
x2 = 0.1562 | 12.414 | 12.144 | 11.876
x2 = 0.2033 | 14.004 | 13.689 | 13.383
x2 = 0.3015 | 17.269 | 16.874 | 16.485
x2 = 0.4071 | 20.625 | 20.146 | 19.678
x2 = 0.5013 | 23.428 | 22.895 | 22.371
x2 = 0.5999 | 26.184 | 25.601 | 25.026
x2 = 0.6989 | 28.955 | 28.31 | 27.687
x2 = 0.7931 | 31.604 | 30.92 | 30.246
x2 = 0.8431 | 33.12 | 32.402 | 31.69
x2 = 0.8982 | 34.833 | 34.071 | 33.315
x2 = 0.9459 | 36.439 | 35.62 | 34.821

CN(C)C=O [dimethylformamide]
[2]
Conditions | relative permittivity
293.15 K | 38.334
298.15 K | 37.44
303.15 K | 36.58

CN(C)C=O [dimethylformamide] + Nc1ccccc1
[3], x1 = 1
Conditions | relative permittivity
293.15 K | 38.334
298.15 K | 37.44
303.15 K | 36.58
